# Assay results published in the METLIN SMRT retention time set (Domingo-Almenara et al. 2019).
# Assay: gradient 5% acetonitrile 3 min, to 50% in 2 min, to 85% in 15 min, held 3 min, 100 µL/min
# Details: column: Zorbax Extend-C18 2.1 x 50 mm; eluents: water / acetonitrile, 0.1% formic acid
# Summary of the method: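 Using water and acetonitrile that each contained 0.1% formic acid, mixtures of ~100 pure standards were separated at 100 μL/min on a Zorbax Extend-C18 column (2.1 × 50 mm, 1.8 μm). The HPLC fed a quadrupole time-of-flight mass spectrometer working in positive and negative ionization mode, with dead and dwell volumes of 40 μL and 900 μL. Data were acquired over 3 months. Retention time was read from computationally picked adduct peaks after manual inspection of each.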
row,Structure (SMILES),RP-LC retention time [s]
1,COc1ccc(CNC(=O)c2cn3ccccc3n2)c(OC)c1,658
2,Cc1ccc(S(=O)(=O)N2CCc3c(c(-c4nnc(-c5ccccc5)o4)nn3C)C2)c(C)c1,1020
3,CCn1c(=O)c(N2CCN(C(=O)NCc3ccccc3)CC2)nc2ccccc21,820
4,Cc1cc(C(=O)Nc2ccc(Cl)cc2)nc2ccnn12,1010
5,O=S(=O)(NCC1(O)CCOCC1)c1ccc2c(c1)CCCC2,688
6,Cc1noc([C@@H]2CN(Cc3cc(Cl)ccc3F)C[C@H]2CO)n1,594
7,COCCN1C(=O)CS(=O)C12CCN(C(=O)Nc1ccc3c(c1)OCCO3)CC2 (configuration not stated),608
8,C=CCc1c(C)nn(-c2nc(CC(=O)Nc3nc4ccccc4[nH]3)cs2)c1C,764
9,COC(=O)c1sccc1NC(=O)Cn1c(C)cc(C)c(-c2nc(-c3ccc(F)cc3)no2)c1=O,1070
10,Cc1oc(-c2ccc(Cl)cc2)nc1CN1CCCC(C(=O)NC2CCCCCC2)C1 (configuration not stated),810
11,COc1cccc(Cn2c(=O)c3sccc3n(Cc3nc(-c4ccccc4C)no3)c2=O)c1,1150
12,Cc1nc2cc(N3CC(C(=O)NCc4ccc(F)c(Cl)c4)CC3=O)ccc2o1 (configuration not stated),750
13,COc1cc(NC(=O)C2CCN(S(=O)(=O)c3cn(C(C)C)cn3)CC2)cc(OC)c1OC,707
14,Cc1nc(-c2ccc3c(c2)n(CC(=O)N2CCn4c2nc2ccccc24)c(=O)n3C(C)C)no1,832
15,Cc1cc2c(cc1S(=O)(=O)N1CCCC1C(=O)Nc1ccc(F)c(Cl)c1)OC(C)C(=O)N2 (configuration not stated),866
16,Cn1nc(C(=O)OCc2cc(-c3ccc(Cl)cc3)on2)ccc1=O,812
17,CCCC(NC(=O)Cc1ccc(OC)cc1Cl)C(=O)Nc1nc2ccccc2[nH]1 (configuration not stated),730
18,COc1cccc(C2Nc3ccccc3NC3=C2C(=O)CC(C)(C)C3)c1O (configuration not stated),686
19,O=C(NCCc1cccs1)C1CCN(C(=O)c2ncn3c2COC(c2ccc(Cl)cc2)C3)CC1 (configuration not stated),808
20,Cc1nc(-c2ccc(OC3CCN(C(=O)NC4CCCC4)C3)cc2)no1 (configuration not stated),820
21,CCN(CC)C(=O)c1ccc(-c2nc3cc(NS(=O)(=O)c4ccccc4F)ccc3n2C)cc1,679
22,CSc1cccc(NC(=O)Cn2nc(C(=O)N3CCOCC3)cc2C2CC2)c1,742

row,Structure (SMILES),RP-LC retention time [s]
1,Cc1ccc(S(=O)(=O)N(C)CC2CCOCC2)c(C)c1,896
2,Cc1nn(C)cc1C(C)NC(=O)C1CCN(c2cn[nH]c(=O)c2)CC1 (configuration not stated),568
3,CCN1CCN(C(=O)c2cn(-c3ccc(-c4nc(C(C)(C)C)no4)cn3)cn2)CC1,653
4,CCOc1ccc(N2C(=O)N(c3ccc(Cl)c(Cl)c3)C3CS(=O)(=O)CC32)cc1 (configuration not stated),915
5,CCn1ccc2sc(C)c(C(=O)NC3CCCCCC3)c2c1=O,894
6,O=C(CSCc1ccccc1)N1CC(c2nc3ccccc3[nH]2)C1,573
7,CC1CCN(C(=O)CC2CCN(S(=O)(=O)c3ccc(Cl)s3)CC2)CC1,1040
8,CN(C)c1ccc(CNC(=O)CCc2c(-c3ccc(Cl)cc3)nc3ccccn23)cc1,588
9,Cc1cc(C(=O)N2CCN(CCNC(=O)c3ccsc3)CC2)c(C)o1,554
10,CC(=O)NCc1csc(C2CCN(C(=O)c3cc(F)ccc3F)CC2)n1,652
11,Cc1cc2n(n1)CCCN2C(=O)CCC(=O)N1CCN(c2cc(Cl)ccc2C)CC1,852
12,COc1ccc(OCc2noc(CNS(=O)(=O)c3ccc4c(c3)CCCC4)n2)cc1,968
13,CCc1ccccc1N1C[C@@]23C=C[C@@H](O2)[C@H](C(=O)OC)[C@@H]3C1=O,730
14,CNC(=O)N1CCCC(c2cccc(C(=O)NCc3ccc(C(F)(F)F)cc3)c2)C1 (configuration not stated),853
15,N#CC1=CN(c2ccc(F)c(F)c2)c2ccc(F)cc2S1(=O)=O,934
16,CCCC(NC(=O)CCc1ccc(OC)cc1)C(=O)Nc1nc2ccccc2[nH]1 (configuration not stated),713
17,O=C(C1CCN(c2nc3ccsc3c(=O)n2-c2ccccc2)CC1)N1CCN(c2ccccc2)CC1,917
18,Cc1cc(N2CCN(C)CC2)nc2ccc(NC(=S)NCc3cccs3)cc12,576
19,CCOC(=O)c1cccc(N2C=C(C(=O)N3CCCC3)S(=O)(=O)c3ccc(Cl)cc32)c1,901
20,CCn1nc(C)c(CNC(=O)Nc2cc(OC)c(OC)c(OC)c2)c1C,615
21,COc1ccc(Cl)cc1C(=O)CN1C(=O)COc2ccccc2C1=O,988
22,COc1ccccc1N1CCN(C(=O)CN2C(=O)CC(c3cccs3)=Nc3ccccc32)CC1,898

row,Structure (SMILES),RP-LC retention time [s]
1,NC(=O)C1CCN(C(=O)C2CCN(S(=O)(=O)Cc3ccc(Cl)cc3)CC2)CC1,678
2,O=C(Nc1ccc2nc3n(c(=O)c2c1)CCC3)Nc1ccccc1Br,726
3,O=C(NCc1ccccc1)c1cc2sccc2n1Cc1ccc(F)cc1,1080
4,O=C(Nc1cnc(N2CCCCC2)nc1)c1ccc(Br)o1,927
5,CCN1CCn2c(nc3cc(C(=O)NCc4ccc(OC(C)C)cc4)ccc32)C1=O,726
6,CCOCCCNC(=O)N1CCC2(CC1)NC(=O)c1ccccc1O2,652
7,Cc1ccc(-c2noc(Cc3nnc(-c4ccccc4)o3)n2)cc1C,1100
8,CCS(=O)(=O)N1CC(CC#N)(n2cc(-c3ncnc4[nH]ccc34)cn2)C1,637
9,CCCNc1cc(N2CCC(CCC(=O)N(CC)CC)CC2)ncn1,538
10,CC(C)NC(=O)C1CCCN(S(=O)(=O)c2cc(-c3noc(C4CCCC4)n3)cs2)C1 (configuration not stated),1050
11,CCCS(=O)(=O)N1CCC2(CC1)c1[nH]c3ccccc3c1CCN2C,659
12,CCOc1ccc(C(C)NC(=O)C2c3ccccc3CCN2C(=O)C2CC2)cc1 (configuration not stated),907
13,O=C(c1cccc(Cl)c1)N1N=C(c2ccco2)CC1c1ccco1 (configuration not stated),1020
14,CNC(=O)C1CCCN(c2nc3ncn(CC(=O)Nc4ccc(C(=O)OC)cc4)c(=O)c3s2)C1 (configuration not stated),649
15,CCc1noc(NC(C)=O)c1-c1ccc(OC)c(S(=O)(=O)Nc2cccc(Cl)c2C)c1,894
16,Cn1c(=O)c(N2CCC(NC(=O)NCc3ccc(F)cc3)CC2)nc2cccnc21,771
17,Cc1nc2c(ccc3nc(NC(=O)CN4C(=O)c5ccccc5C4=O)sc32)s1,780
18,CC1(C)CC(=O)C2=C(C1)Nc1ccccc1N(CC(=O)Nc1ccccc1)C2c1ccc(F)cc1 (configuration not stated),938
19,Cc1cc(C)n(-c2ccnc(NCc3cccnc3)n2)n1,588
20,O=C(NCc1ccccc1)c1ccc(-c2cncnc2)nc1,675
21,CC1CCN(S(=O)(=O)c2ccc(-c3nnc(C(=O)NCCCN4CCN(C)CC4)o3)cc2)CC1,623
22,O=C(NCc1ccccn1)C1CCc2sc(C(=O)N3CCCC3)cc2C1 (configuration not stated),518

row,Structure (SMILES),RP-LC retention time [s]
1,Cc1c(C(=O)NCCCN2CCCCC2)oc2ccc3c(c12)C(O)CC(C)(C)O3 (configuration not stated),631
2,O=C(c1nc(Nc2ccc(F)cc2)c2ccccc2n1)N1CCOCC1,685
3,NC(=O)c1ccccc1OCC(=O)Nc1ccc(Cl)c(Cl)c1,895
4,O=C(Cn1cc(S(=O)(=O)c2ccc(F)cc2)c2ccccc21)NC1CC1,748
5,c1ccc(-c2nc(-c3ccc4c(c3)nnn4CCN3CCCCC3)no2)nc1,602
6,COc1cccc2cc(C(=O)NCC3CCN(S(=O)(=O)C4CC4)CC3)oc12,754
7,CC(C)(Cc1c[nH]c2ccc(Cl)cc12)NCCOc1ccccc1OCC1CC1,953
8,CC(C)NC(=O)N1CCC2(CC1)CCC(O)(CN1CCc3ccccc31)CC2,882
9,CC(C)NC(=O)c1ccc(OCC2CCN(C(=O)c3cc(F)ccc3F)CC2)cc1,850
10,COc1ccccc1NC(=O)N1c2ccccc2NC2=C(C(=O)CCC2)C1c1ccco1 (configuration not stated),830
11,CCOC(=O)N1CCN(C(=O)C2CCN(c3ccc(Sc4ccc(C(C)C)cc4)nn3)CC2)CC1,896
12,Cc1nc(-c2ccccc2)nc2c1CCC(=O)N2Cc1ccco1,1000
13,CCN1CCn2cc(S(=O)(=O)N3CCCc4ccccc43)cc2C1=O,800
14,COc1ccc(-n2c(=O)n(C)c(=O)c3cc(C(=O)Nc4cccc(OC)c4)cnc32)cc1,1020
15,O=C1NC2=C(C(=O)N(CCC3=CCCCC3)C2)C(c2ccccc2F)N1 (configuration not stated),684
16,Cn1nc(-c2nnc(-c3ccccc3F)o2)c2c1CCN(S(=O)(=O)c1cc(F)ccc1F)C2,928
17,COc1ccc(S(=O)(=O)N2CCC(n3cnc4c(C)cccc4c3=O)CC2)cc1OC,881
18,COc1ccccc1-c1noc(Cn2ncn3nc(-c4ccc(Br)cc4)cc3c2=O)n1,1110
19,O=C(CCC1CCN(S(=O)(=O)c2ccccc2)CC1)NCc1ccco1,776
20,Cc1cc(C(=O)NCC(C)C)c2cc(F)ccc2n1,698
21,COc1ccc(CC(=O)N2CCc3nc(CNC(=O)C4CCC4)n(C)c3C2)cc1,589
